Source: US20030237103A1, “Methods and compositions for pharmacological and toxicological evaluation of test agents” (priority 2002, published 2003)

Test system: Panel, CD-IGS and parental rat strains
Assay: Kidney histology of gentamicin- and vehicle-treated rats
Source text: Arrows point to regions of the proximal tabules damage scored as follows: 0=no damage, 1=25% injured tubules, 2=50% injured tubules and protein casts in lumens, 3=severe injury of >50% of tubules, 4=nearly complete necrosis of all tubules. Representative histological samples from the outbred Sprague Dawley rat CD-IGS (Panel B) and the four inbred parental strains Brown Norway, Fischer 344, Lewis and Wistar Kyoto rats (Panel C) are also shown.
We sought to maximize the range of genetic susceptibility to the adverse drug effects across the strains.

Substance: gentamicin
- damage to proximal tubules (F1 hybrids except WKYxBN): ≥ 50%
- kidney damage by histology (LEW×F344 F1 rats, 240 mg/Kg/day): nearly complete necrosis of all proximal tubules
- effect on the kidney (WKY rats): virtually no effect
- injured tubules (WKY rats, both vehicle and gentamicin treated): 25%
- renal damage by histology (WKYxBN F1 strain): little renal damage
- tubules damaged (gentamicin-treated parental strains except WKY): greater than 50%
